system: IgE antibody production; test: Activity to inhibit the IgE antibody production in mice sensitized with egg albumin (ELISA of plasma IgE); format: in vivo, male BALB/c mice; settings: Mus musculus, 240 h; 3 mg/kg/day, oral, once a day for seven times; blood ten days after sensitization; BALB/c mice; read-out: Percentage of the IgE antibody production inhibited
Method: Groups of five male BALB/c mice (body weight: 20 to 25 g) each were sensitized by intraperitoneally injection with 4 mg of aluminum hydroxide to which absorbed 10 μg of egg albumin. The test compound is suspended in a gum arabic solution, and the suspensions of different concentrations were orally administered to the animals once a day for seven times in total from immediately after the sensitization. The gum arabic suspension having no test compound added was used for the control.
Blood was collected from the animal ten days after the sensitization, and the collected blood was evaluated for the amount of the IgE antibody produced by ELISA. In brief, the plasma sample was added to immobilized anti-mouse igE antibody, and then, reacting with the anti-mouse IgE antibody having labeled with horseradish peroxidase. The amount of the IgE antibody produced was calculated by using the activity of the horseradish peroxidase for the index (See Meneki-to-Shikkan (Immune and Diseases), 15, 211-216, 1988).
In Table 1, there are shown the amount of the test compounds administered and the percentage of the IgE antibody production inhibited calculated by equation 1: [formula]

Row | Structure (SMILES) | inhibition at 3 mg/kg [%]
1 | Clc1ccc(-c2cn3cccc4c3c2CCC4)cc1 [Example 3, 1-(4-chlorophenyl) -8,9-dihydro-7H-pyrrolo-[3,2,1-ij]quinoline] | 64
2 | Fc1ccc(-c2cn3cccc4c3c2CCC4)cc1 [Example 99, 8,9-dihydro-1-(4-fluorophenyl)-7H-pyrrolo-[3,2,1-ij]quinoline] | 43

same assay, conditions: Mus musculus, 240 h; 10 mg/kg/day, oral, once a day for seven times; blood ten days after sensitization; BALB/c mice; read-out: Percentage of the IgE antibody production inhibited

Row | Structure (SMILES) | inhibition at 10 mg/kg [%]
3 | NC1CCc2c(-c3ccc(Cl)cc3)cn3cccc1c23 (centres unmarked) [Example 7, 7-amino-1-(4-chlorophenyl)-8,9-dihydro-7H-pyrrolo[3,2,1-ij]quinoline] | 49
4 | C=C1CCc2c(-c3ccc(Cl)cc3)cn3cccc1c23 [Example 9, 1-(4-chlorophenyl)-8,9-dihydro-7-methylene-7H-pyrrolo[3,2,1-ij]quinoline] | 65
5 | Brc1ccc(-c2cn3cccc4c3c2CCC4)cc1 [Example 100, 1-(4-bromophenyl)-8,9-dihydro-7H-pyrrolo-[3,2,1-ij]quinoline] | 77
6 | c1ccc2cc(-c3cn4cccc5c4c3CCC5)ccc2c1 [Example 108, 8,9-dihydro-1-(2-naphthyl)-7H-pyrrolo[3,2,1-ij]quinoline] | 71
7 | Cc1ccc(-c2cn3cccc4c3c2CCC4)cc1 [Example 109, 8,9-dihydro-1-(4-methylphenyl)-7H-pyrrolo-[3,2,1-ij]quinoline] | 45

same assay, conditions: Mus musculus, 240 h; 30 mg/kg/day, oral, once a day for seven times; blood ten days after sensitization; BALB/c mice; read-out: Percentage of the IgE antibody production inhibited

Row | Structure (SMILES) | inhibition at 30 mg/kg [%]
8 | NN=C1CCc2c(-c3ccc(Br)cc3)cn3cccc1c23 [Example 4, 1-(4-bromophenyl)-8,9-dihydro-7H-pyrrolo[3,2,1-ij]quinolin-7-one hydrazone] | 47
9 | NN=C1CCn2c(-c3ccc(Cl)cc3)nc3cccc1c32 [Example 15, 2-(4-chlorophenyl)-4,5-dihydro-6H-imidazo-[4,5,1-ij]quinolin-6-one hydrazone] | 53
10 | CON=C1CCn2c(-c3ccc(Cl)cc3)nc3cccc1c32 [Example 16, 2-(4-chlorophenyl)-4,5-dihydro-6-methoxyimino-6H-imidazo[4,5,1-ij]quinoline] | 54
11 | NC1CCn2c(-c3ccc(C(F)(F)F)cc3)nc3cccc1c32 (centres unmarked) [Example 71, 6-amino-4,5-dihydro-2-(4-trifluoromethylphenyl)-imidazo[4,5,1-ij]quinoline] | 78
12 | O=C1CCc2c(-c3ccc(C(F)(F)F)cc3)cn3cccc1c23 [Example 81, 8,9-dihydro-1-(4-trifluoromethylphenyl)-7H-pyrrolo[3,2,1-ij]quinolin-7-one] | 61
13 | ON=C1CCc2c(-c3ccc(C(F)(F)F)cc3)cn3cccc1c23 [Example 92, 8,9-dihydro-1-(4-trifluoromethylphenyl)-7H-pyrrolo[3,2,1-ij]quinolin-7-oneoxi] | 50
14 | NN=C1CCc2c(-c3ccc(Cl)cc3)cn3cccc1c23 [Example 117, 1-(4-chlorophenyl)-8,9-dihydro-7H-pyrrolo-[3,2,1-ij]quinolin-7-one hydrazone] | 44
15 | CC(C)=NN=C1CCc2c(-c3ccc(Cl)cc3)cn3cccc1c23 [Example 124, 1-(4-chlorophenyl)-8,9-dihydro-7H-pyrrolo-[3,2,1-ij]quinolin-7-one isopropylidenehydrazone] | 45
16 | FC(F)(F)c1ccc(-c2cn3cccc4c3c2CCC4)cc1 [Example 130, 8,9-dihydro-1-(4-trifluoromethylphenyl)-7H-pyrrolo[3,2,1-ij]quinoline] | 86
17 | NC1CCc2c(-c3ccc(C(F)(F)F)cc3)cn3cccc1c23 (centres unmarked) [Example 132, 7-amino-8,9-dihydro-1-(4-trifluoromethylphenyl)-7H-pyrrolo[3,2,1-ij]quinoline] | 80
18 | ON=C1CCn2c(-c3ccccc3)nc3cccc1c32 [Reference Example 30, 2-phenyl-4,5-dihydro-6H-imidazo-[4,5,1-ij]quinolin-6-one oxime] | 32
19 | ON=C1CCn2c(-c3ccc(Br)cc3)nc3cccc1c32 [Reference Example 33, 2-(4-bromophenyl)-4,5-dihydro-6H-imidazo[4,5,1-ij]quinolin-6-one oxime] | 41
20 | ON=C1CCn2c(-c3ccc(C(F)(F)F)cc3)nc3cccc1c32 [Reference Example 34, 2-(4-trifluoromethylphenyl)-4,5-dihydro-6H-imidazo[4,5,1-ij]quinolin-6-oneoxime] | 32
21 | ON=C1CCn2c(-c3ccc4ccccc4c3)nc3cccc1c32 [Reference Example 36, 2-(2-naphthyl)-4,5-dihydro-6H-imidazo[4,5,1-ij]quinolin-6-one oxime] | 50

system: sensitized rat peritoneal cells (histamine release); test: Activity to suppress the histamine release from passively sensitized rat peritoneal cells; format: cell-based, male Wistar rats; settings: 10 min, 1 μg/ml, 2×10^4 sensitized peritoneal cells, egg albumin, ten minutes, read-out: Percentage of the histamine release suppressed
Method: Peritoneal cells were collected from male Wistar rats (9 week-old) killed by exsanguination. The cells were washed by centrifugation, and passively sensitized with rat anti-egg albumin serum. 2×10^4 of the sensitized peritoneal cells (1×10^4 of the sensitized peritoneal cells in the case of the compound of Example 12) were reacted with the solution of the test compound (in 0.1% bovine serum albumin solution in HBSS (Hanks' balanced salt solution) containing 0.1% DMSO). Egg albumin was added as allergen, the reaction was allowed to take place for ten minutes. After the cease of the reaction, the amount of the histamine released was determined by post-column fluorometric assay using high-speed liquid chromatography.
The amount of the test compounds administered and the percentage of the histamine release suppressed calculated by equation 2 are shown in Table 2.
Example 123: 1-(4-chlorophenyl)-8,9-dihydro-7H-pyrrolo-[3,2,1-ij]quinolin-7-one tosylhydrazone. [formula]

Row | Structure (SMILES) | inhibition at 1 µg/mL [%]
22 | NN=C1CCn2c(-c3ccc(Cl)cc3)nc3cccc1c32 [Example 15, 2-(4-chlorophenyl)-4,5-dihydro-6H-imidazo-[4,5,1-ij]quinolin-6-one hydrazone] | 42

same assay, conditions: 10 min, 3 μg/ml, 2×10^4 sensitized peritoneal cells, egg albumin, ten minutes, read-out: Percentage of the histamine release suppressed

Row | Structure (SMILES) | inhibition at 3 µg/mL [%]
23 | CC(C)=NN=C1CCn2c(-c3ccc(Cl)cc3)nc3cccc1c32 [Example 14, 2-(4-chlorophenyl)-4,5-dihydro-6H-imidazo-[4,5,1-ij]quinolin-6-one isopropylidenehydrazone] | 55
24 | Clc1ccc(-c2nc3cccc4c3n2CCC4=NNc2ccccc2)cc1 [Example 17, 2-(4-chlorophenyl)-4,5-dihydro-6H-imidazo-[4,5,1-ij]quinolin-6-one phenylhydrazone] | 40
25 | Clc1ccc(-c2cn3cccc4c3c2CCC4=NNc2ccccc2)cc1 [Example 119, 1-(4-chlorophenyl)-8,9-dihydro-7H-pyrrolo-[3,2,1-ij]quinolin-7-one phenylhydrazone] | 42
26 | Cc1ccc(S(=O)(=O)NN=C2CCc3c(-c4ccc(Cl)cc4)cn4cccc2c34)cc1 [Example 123, 1-(4-chlorophenyl)-8,9-dihydro-7H-pyrrolo-[3,2,1-ij]quinolin-7-one tosylhydrazone] | 33

same assay, conditions: 10 min, 10 μg/ml, 1×10^4 sensitized peritoneal cells (Example 12), egg albumin, ten minutes, read-out: Percentage of the histamine release suppressed

Row | Structure (SMILES) | inhibition at 10 µg/mL [%]
27 | OC1CCn2c(-c3ccc(Cl)cc3)nc3cccc1c32 (centres unmarked) [Example 12, 2-(4-chlorophenyl)-4,5-dihydro-6-hydroxy-6H-imidazo[4,5,1-ij]quinoline] | 49

same assay, conditions: 10 min, 10 μg/ml, 2×10^4 sensitized peritoneal cells, egg albumin, ten minutes, read-out: Percentage of the histamine release suppressed

Row | Structure (SMILES) | inhibition at 10 µg/mL [%]
28 | NN=C1CCc2c(-c3ccc(Br)cc3)cn3cccc1c23 [Example 4, 1-(4-bromophenyl)-8,9-dihydro-7H-pyrrolo[3,2,1-ij]quinolin-7-one hydrazone] | 50
29 | NN=C1CCc2c(-c3ccc(Cl)cc3)cn3cccc1c23 [Example 117, 1-(4-chlorophenyl)-8,9-dihydro-7H-pyrrolo-[3,2,1-ij]quinolin-7-one hydrazone] | 47
30 | CCOC(=O)C(=O)NC1CCc2c(-c3ccc(Cl)cc3)cn3cccc1c23 (centres unmarked) [Example 122, 1-(4-chlorophenyl)-8,9-dihydro-7-ethoxyoxalylamino-7H-pyrrolo[3,2,1-ij]quinoline] | 98

system: mice; test: Acute toxicity, oral; format: in vivo; settings: 1000 mg/kg oral, three mice per group, observed for 7 days
Method: To groups of three mice each having a body weight of 20 to 30 g were orally administered 1000 mg/kg of the compounds of Examples 15 and 117 of the present invention.

Row | Structure (SMILES) | death within 7 days (acute toxicity)
31 | NN=C1CCn2c(-c3ccc(Cl)cc3)nc3cccc1c32 [Example 15, 2-(4-chlorophenyl)-4,5-dihydro-6H-imidazo-[4,5,1-ij]quinolin-6-one hydrazone] | no mouse was found dead
32 | NN=C1CCc2c(-c3ccc(Cl)cc3)cn3cccc1c23 [Example 117, 1-(4-chlorophenyl)-8,9-dihydro-7H-pyrrolo-[3,2,1-ij]quinolin-7-one hydrazone] | no mouse was found dead
